What was measured:
Type in all cases: cell-based
A. fumigatus MYA-4609 = assay: MEC assay (Example 32); settings: MEC values (24 h), rounded/compact hyphal morphology
Procedure: (§1) MIC and MEC assays were run as described in Example 31 with the following exceptions. Starting solutions of all antifungal agents were prepared in 100% DMSO. Stock concentrations were made at 50× the highest final assay concentration and serially diluted 2-fold, 16 times in a 96-well PCR plate (VWR 83007-374). Candida and Aspergillus suspensions from Sabouraud dextrose agar plate cultures were prepared in 0.85% saline at 0.5 McFarland standard (˜0.1 OD530 nm). Candida suspensions were diluted 1:500 in RPMI (MP Biomedicals, cat no. 1060124; buffered with MOPS and adjusted with NaOH to pH 7.0) to a concentration of ˜0.5-2.5×10^3 CFU/mL and Aspergillus suspensions were diluted 1:50 in RPMI to 0.4-5×10^4 CFU/mL final concentration. 98 μL of each cell suspension in RPMI were added to test wells in a 96-well assay plate (Costar cat. no. 3370). A Beckman Multimek 96 liquid handling robot was used to dispense 2 μL of each 50× stock compound into the plate containing 98 μL of each strain in RPMI (2% final solvent concentration). Plates were shaken then incubated at 35° C. for 24-48 h prior to reading. MIC values were read visually at 50% growth inhibition for echinocandins (24 h) and at 100% growth inhibition for amphotericin B (48 h). MEC values (24 h) were read with the aid of a microscope at the lowest echinocandin concentration where rounded/compact hyphal morphology was observed.

A. fumigatus MYA-3626 = assay: MEC assay (Example 32); settings: MEC values (24 h), rounded/compact hyphal morphology
Procedure: as §1

A. niger ATCC 16404 = assay: MEC assay (Example 32); settings: MEC values (24 h), rounded/compact hyphal morphology
Procedure: as §1

A. fumigatus ATCC 13073 = assay: MEC assay (Example 32); settings: MEC values (24 h), rounded/compact hyphal morphology
Procedure: as §1

A. flavus ATCC MYA-3631 = assay: MEC assay (Example 32); settings: MEC values (24 h), rounded/compact hyphal morphology
Procedure: as §1

[1] = tested on: C. parapsilosis ATCC 22019; settings: C. parapsilosis ATCC 22019; read at 50% growth inhibition for echinocandins (24 h), 100% for amphotericin B (48 h)
Procedure: as §1

C. krusei ATCC 14243 = settings: C. krusei ATCC 14243; read at 50% growth inhibition for echinocandins (24 h), 100% for amphotericin B (48 h)
Procedure: as §1

C. tropicalis ATCC 750 = settings: C. tropicalis ATCC 750; read at 50% growth inhibition for echinocandins (24 h), 100% for amphotericin B (48 h)
Procedure: as §1

C. albicans ATCC 90028 = settings: C. albicans ATCC 90028; read at 50% growth inhibition for echinocandins (24 h), 100% for amphotericin B (48 h)
Procedure: as §1

C. glabrata ATCC 90030 = settings: C. glabrata ATCC 90030; read at 50% growth inhibition for echinocandins (24 h), 100% for amphotericin B (48 h)
Procedure: as §1

**Q.** What does the source list for “caspofungin acetate [reference compound]”?
**A.** MEC (A. fumigatus MYA-4609): 0.06 µg/mL; MEC (A. fumigatus MYA-3626): 0.06 µg/mL; MEC (A. niger ATCC 16404): 0.06 µg/mL; MEC (A. fumigatus ATCC 13073): 0.03 µg/mL; MEC (A. flavus ATCC MYA-3631): 0.06 µg/mL; MIC [1]: 0.5 µg/mL; MIC (C. krusei ATCC 14243): 0.25 µg/mL; MIC (C. tropicalis ATCC 750): 0.125 µg/mL; MIC (C. albicans ATCC 90028): 0.125 µg/mL; MIC (C. glabrata ATCC 90030): 0.25 µg/mL

Reference: patent US20160213742A1, “COMPOSITIONS AND METHODS FOR THE TREATMENT OF FUNGAL INFECTIONS” (priority 2013, published 2016)
